Target: fully phosphorylated, active Mouse ERK2 protein (Mus musculus, UniProt P63085)
Test: Active ERK2 assay (AERK2), IMAP format
Type: biochemical
Conditions: activated ERK2, IMAP fluorescence polarization, 30 μM ATP
Method: 14 μl of kinase buffer (10 mM Tris.HCl pH 7.2, 10 mM MgCl2, 0.01% Tween-20, 1 mM DTT) containing 0.4 ng unphosphorylated Mouse ERK2 protein can be added to each well of a black 384-well assay plate. […] DMSO concentration during initial incubation is 6.7%. ERK2 activity can be determined to be insensitive to DMSO concentrations up to 20%. ERK2 can then be activated and it's kinase activity can be measured by the addition of 10 μl kinase buffer with the following components (final concentration per reaction): 2 ng active (phosphorylated) human MEK1 protein and 4 μM (total) ERK2 IMAP substrate peptides (3.9 μM unlabeled IPTTPITTTYFFFK-CONH2 and 100 nM IPTTPITTTYFFFK(5-carboxyfluorescein)-CONH2) and 30 μM ATP. DMSO concentration during ERK activation can be 4%. After one hour, reactions can be terminated by addition of 60 μl IMAP detections beads in binding buffer (Molecular Devices). Binding can be allowed to equilibrate for 30 minutes before reading the plate on an LJL Analyst Fluorescence Polarization plate reader. […] Active compounds can be reconfirmed in an independent assay.
Activated ERK2 activity was also determined in the IMAP assay format using the procedure outlined above. 1 μl of 25× compound was added to 14 μl of kinase buffer containing 0.25 ng fully phosphorylated, active Mouse ERK2 protein. Following a 30 minute incubation, the reactions were initiated by addition of 10 μl of kinase buffer containing 1 μM ERK2 IMAP substrate peptide (0.9 μM unlabeled IPTTPITTTYFFFK-CONH2 and 100 nM IPTTPITTTYFFFK(5-carboxyfluorescein)-CONH2) and 30 μM ATP. Reactions proceeded for 30 minutes before termination by addition of 60 μl IMAP detection beads in binding buffer. Plates were read as above after 30 minute binding equilibration. Active compounds were reconfirmed in an independent assay.

Chain of fully phosphorylated, active Mouse ERK2 protein (P63085 whole entry): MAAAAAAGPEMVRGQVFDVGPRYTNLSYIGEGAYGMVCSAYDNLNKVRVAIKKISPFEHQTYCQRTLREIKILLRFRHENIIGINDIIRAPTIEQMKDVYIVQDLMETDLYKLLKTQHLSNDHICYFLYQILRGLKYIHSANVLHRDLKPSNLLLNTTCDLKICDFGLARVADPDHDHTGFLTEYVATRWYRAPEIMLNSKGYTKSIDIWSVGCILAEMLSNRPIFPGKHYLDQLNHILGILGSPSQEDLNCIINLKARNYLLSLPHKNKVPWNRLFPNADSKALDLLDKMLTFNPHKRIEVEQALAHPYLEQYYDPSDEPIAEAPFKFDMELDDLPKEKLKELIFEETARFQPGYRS

**Q.** With CC1(C)Cc2cc(-c3n[nH]c4ccc(-c5n[nH]c([C@@H]6CCCN(Cc7c(F)cccc7F)C6)n5)cc34)ccc2O1 [Example 300, 5-[5-[1-[(2,6- DIFLUOROPHENYL)METHYL]- 3(R)-PIPERIDINYL]-1H- 1,2,4-TRIAZOL-3-YL]-3-(2,3- DIHYDRO-2,2-DIMETHYL-5- BENZOFURANYL)-1H- INDAZOLE] as the molecule, how does the IC50 read?
**A.** ≥ 0.504 µM

**Q.** For Fc1cccc(F)c1CN1CCC[C@@H](c2nc(-c3ccc4[nH]nc(-c5ccc(C(F)(F)F)cc5)c4c3)n[nH]2)C1 [Example 301, 5-[5-[1-[(2,6- DIFLUOROPHENYL)METHYL]- 3(R)-PIPERIDINYL]-1H- 1,2,4-TRIAZOL-3-YL]-3-[4- (TRIFLUOROMETHYL)PHEN- YL]-1H-INDAZOLE], which IC50 is on record?
**A.** ≥ 0.504 µM

**Q.** With Fc1cccc(F)c1CN1CCC[C@@H](c2nc(-c3ccc4[nH]nc(-c5ccnc(F)c5F)c4c3)n[nH]2)C1 [Example 302, 5-[5-[1-[(2,6- DIFLUOROPHENYL)METHYL]- 3(R)-PIPERIDINYL]-1H- 1,2,4-TRIAZOL-3-YL]-3-(2,3- DIFLUORO-4-PYRIDINYL)- 1H-INDAZOLE] as the molecule, how does the IC50 read?
**A.** ≥ 0.504 µM

**Q.** Cc1noc(C)c1-c1n[nH]c2ccc(-c3n[nH]c([C@@H]4CCCN(Cc5c(F)cccc5F)C4)n3)cc12 [Example 303, 5-[5-[1-[(2,6- DIFLUOROPHENYL)METHYL]- 3(R)-PIPERIDINYL]-1H- 1,2,4-TRIAZOL-3-YL]-3-(3,5- DIMETHYL-4-ISOXAZOLYL)- 1H-INDAZOLE] was tested. Which IC50 did it give?
**A.** ≥ 0.504 µM

**Q.** How did the IC50 turn out when CC(C)Oc1ccc(-c2n[nH]c3ccc(-c4n[nH]c([C@@H]5CCCN(Cc6cccs6)C5)n4)cc23)cc1 [Example 304, 3-[4-(1- METHYLETHOXY)PHENYL]- 5-[5-[1-(2- THIENYLMETHYL)-3(R)- PIPERIDINYL]-1H-1,2,4- TRIAZOL-3-YL]-1H- INDAZOLE] was run?
**A.** ≥ 0.504 µM

**Q.** With CC(C)Sc1ccc(-c2n[nH]c3ccc(-c4n[nH]c([C@@H]5CCCN(Cc6c(F)cccc6F)C5)n4)cc23)cc1 [Example 305, 5-[5-[1-[(2,6- DIFLUOROPHENYL)METHYL]- 3(R)-PIPERIDINYL]-1H- 1,2,4-TRIAZOL-3-YL]-3-[4-[(1- METHYLETHYL)THIO]PHEN- YL]-1H-INDAZOLE] as the molecule, how does the IC50 read?
**A.** ≥ 0.504 µM

**Q.** For Fc1ccccc1CN1CCCC(c2nnc(-c3ccc4[nH]nc(-c5ccncc5)c4c3)o2)C1 (centres unmarked) [Example 306, 5-[5-[1-[(2- FLUOROPHENYL)METHYL]- 3-PIPERIDINYL]-1,3,4- OXADIAZOL-2-YL]-3-(4- PYRIDINYL)-1H-INDAZOLE], which IC50 is on record?
**A.** 0.0003 to 0.0104 µM

**Q.** Which IC50 does the source give for c1ccc(CN2CCCC(c3nnc(-c4ccc5[nH]nc(-c6ccc7c(c6)CCO7)c5c4)o3)C2)cc1 (centres unmarked) [Example 307, 3-(2,3-DIHYDRO-5- BENZOFURANYL)-5-[5-[1- (PHENYLMETHYL)-3- (PIPERIDINYL]-1,3,4- OXADIAZOL-2-YL]-1H- INDAZOLE] here?
**A.** > 1 µM

**Q.** Which IC50 does the source give for Clc1cc(-c2n[nH]c3ccc(-c4nnc(C5CCCN(Cc6ccccc6)C5)o4)cc23)ccn1 (centres unmarked) [Example 309, 3-(2-CHLORO-4-PYRIDINYL)- 5-[5-[1-(PHENYLMETHYL)-3- PIPERIDINYL]-1,3,4- OXADIAZOL-2-YL]-1H- INDAZOLE] here?
**A.** > 1 µM

**Q.** For COc1cccc(F)c1CN1CCC[C@@H](c2nnc(-c3ccc4[nH]nc(-c5ccc(O)c(NC(C)=O)c5)c4c3)o2)C1 [Example 314, N-[5-[5-[5-[1-[(2-FLUORO-6- METHOXYPHENYL)METHYL]- 3(R)-PIPERIDINYL]-1,3,4- OXADIAZOL-2-YL]-1H- INDAZOL-3-YL]-2- HYDROXYPHENYL] ACETAMIDE], which IC50 is on record?
**A.** 0.0003 to 0.0104 µM

**Q.** How did the IC50 turn out when CC(=O)Nc1cc(-c2n[nH]c3ccc(-c4nnc([C@@H]5CCCN(Cc6ccc7nccnc7c6)C5)o4)cc23)ccc1O [Example 316, N-[2-HYDROXY-5-[5-[5-[1-(6- QUINOXALINYLMETHYL)- 3(R)-PIPERIDINYL]-1,3,4- OXADIAZOL-2-YL]-1H- INDAZOL-3- YL]PHENYL]ACETAMIDE] was run?
**A.** ≥ 0.504 µM

**Q.** For Cn1cc2cc(-c3n[nH]c4ccc(-c5nnc([C@@H]6CCCN(Cc7cc8ccccc8n7C)C6)o5)cc34)ccc2n1 [Example 321, 3-(2-METHYL-2H-INDAZOL- 5-YL)-5-[5-[1-[(1-METHYL- 1H-INDOL-2-YL)METHYL]- 3(R)-PIPERIDINYL]-1,3,4- OXADIAZOL-2-YL]-1H- INDAZOLE], which IC50 is on record?
**A.** > 1 µM

**Q.** COc1cccc(F)c1CN1CCC[C@@H](c2nnc(-c3ccc4[nH]nc(-c5ccc6nn(C)cc6c5)c4c3)o2)C1 [Example 322, 5-[5-[1-[(2-FLUORO-6- METHOXYPHENYL)METHYL]- 3(R)-PIPERIDINYL]-1,3,4- OXADIAZOL-2-YL]-3-(2- METHYL-2H-INDAZOL-5- YL)-1H-INDAZOLE] was tested. Which IC50 did it give?
**A.** 0.0003 to 0.0104 µM

**Q.** With Cn1cc(CN2CCC[C@@H](c3nnc(-c4ccc5[nH]nc(-c6ccc7nccn7c6)c5c4)o3)C2)c2ccccc21 [Example 328, 3-IMIDAZO[1,2-a]PYRIDIN-6- YL-5-[5-[1-[(1-METHYL-1H- INDOL-3-YL)METHYL]-3(R)- PIPERIDINYL]-1,3,4- OXADIAZOL-2-YL]-1H- INDAZOLE] as the molecule, how does the IC50 read?
**A.** > 1 µM

**Q.** For Cn1c(CN2CCC[C@@H](c3nnc(-c4ccc5[nH]nc(-c6ccc7nccn7c6)c5c4)o3)C2)cc2ccccc21 [Example 329, 3-IMIDAZO[1,2-a]PYRIDIN-6- YL-5-[5-[1-[(1-METHYL-1H- INDOL-2-YL)METHYL]-3(R)- PIPERIDINYL]-1,3,4- OXADIAZOL-2-YL]-1H- INDAZOLE], which IC50 is on record?
**A.** > 1 µM

**Q.** Which IC50 does the source give for COc1cccc(F)c1CN1CCC[C@@H](c2nnc(-c3ccc4[nH]nc(-c5ccnc(C)c5)c4c3)o2)C1 [Example 336, 5-[5-[1-[(2-FLUORO-6- METHOXYPHENYL)METHYL]- 3(R)-PIPERIDINYL]-1,3,4- OXADIAZOL-2-YL]-3-(2- METHYL-4-PYRIDINYL)-1H- INDAZOLE] here?
**A.** 0.0003 to 0.0104 µM

**Q.** For CCn1cc(-c2n[nH]c3ccc(-c4nnc([C@@H]5CCCN(Cc6csc7ccccc67)C5)o4)cc23)cn1 [Example 339, 5-[5-[1-(BENZO[b]THIEN-3- YLMETHYL)-3(R)- PIPERIDINYL]-1,3,4- OXADIAZOL-2-YL]-3-(1- ETHYL-1H-PYRAZOL-4-YL)- 1H-INDAZOLE], which IC50 is on record?
**A.** > 1 µM

**Q.** CCn1cc(-c2n[nH]c3ccc(-c4nnc([C@@H]5CCCN(Cc6cn(C)c7ccccc67)C5)o4)cc23)cn1 [Example 341, 3-(1-ETHYL-1H-PYRAZOL-4- YL)-5-[5-[1-[(1-METHYL-1H- INDOL-3-YL)METHYL]-3(R)- PIPERIDINYL]-1,3,4- OXADIAZOL-2-YL]-1H- INDAZOLE] was tested. Which IC50 did it give?
**A.** > 1 µM

**Q.** Which IC50 does the source give for CCn1cc(-c2n[nH]c3ccc(-c4nnc([C@@H]5CCCN(Cc6cc7ccccc7n6C)C5)o4)cc23)cn1 [Example 342, 3-(1-ETHYL-1H-PYRAZOL-4- YL)-5-[5-[1-[(1-METHYL-1H- INDOL-2-YL)METHYL]-3(R)- PIPERIDINYL]-1,3,4- OXADIAZOL-2-YL]-1H- INDAZOLE] here?
**A.** > 1 µM

**Q.** With CCn1cc(-c2n[nH]c3ccc(-c4nnc([C@@H]5CCCN(Cc6cc(F)c(Cl)cc6Cl)C5)o4)cc23)cn1 [Example 345, 5-[5-[1-[(2,4-DICHLORO-5- FLUOROPHENYL)METHYL]- 3(R)-PIPERIDINYL]-1,3,4- OXADIAZOL-2-YL]-3-(1- ETHYL-1H-PYRAZOL-4-YL)- 1H-INDAZOLE] as the molecule, how does the IC50 read?
**A.** > 1 µM

**Q.** Which IC50 does the source give for Fc1ccccc1CN1CCC[C@@H](c2nnc(-c3ccc4[nH]nc(-c5ccc6occc6c5)c4c3)o2)C1 [Example 347, 3-(5-BENZOFURANYL)-5-[5- [1-[(2- FLUOROPHENYL)METHYL]- 3(R)-PIPERIDINYL]-1,3,4- OXADIAZOL-2-YL]-1H- INDAZOLE] here?
**A.** ≥ 0.504 µM

**Q.** With Fc1cccc(F)c1CN1CCC[C@@H](c2nnc(-c3ccc4[nH]nc(-c5ccc6occc6c5)c4c3)o2)C1 [Example 348, 3-(5-BENZOFURANYL)-5-[5- [1-[(2,6- DIFLUOROPHENYL)METHYL]- 3(R)-PIPERIDINYL]-1,3,4- OXADIAZOL-2-YL]-1H- INDAZOLE] as the molecule, how does the IC50 read?
**A.** > 1 µM

**Q.** With COc1cccc(F)c1CN1CCC[C@@H](c2nnc(-c3ccc4[nH]nc(-c5ccc6occc6c5)c4c3)o2)C1 [Example 349, 3-(5-BENZOFURANYL)-5-[5- [1-[(2-FLUORO-6- METHOXYPHENYL)METHYL]- 3(R)-PIPERIDINYL]-1,3,4- OXADIAZOL-2-YL]-1H- INDAZOLE] as the molecule, how does the IC50 read?
**A.** ≥ 0.504 µM

**Q.** How did the IC50 turn out when c1ccc2oc(CN3CCC[C@@H](c4nnc(-c5ccc6[nH]nc(-c7ccc8occc8c7)c6c5)o4)C3)cc2c1 [Example 350, 3-(5-BENZOFURANYL)-5-[5- [1-(2- BENZOFURANYLMETHYL)- 3(R)-PIPERIDINYL]-1,3,4- OXADIAZOL-2-YL]-1H- INDAZOLE] was run?
**A.** > 1 µM

**Q.** With c1cc(CN2CCC[C@@H](c3nnc(-c4ccc5[nH]nc(-c6ccc7occc7c6)c5c4)o3)C2)ncn1 [Example 351, 3-(5-BENZOFURANYL)-5-[5- [1-(4- PYRIMIDINYLMETHYL)- 3(R)-PIPERIDINYL]-1,3,4- OXADIAZOL-2-YL]-1H- INDAZOLE] as the molecule, how does the IC50 read?
**A.** > 1 µM

**Q.** How did the IC50 turn out when c1cc2cc(-c3n[nH]c4ccc(-c5nnc([C@@H]6CCCN(CC7CCCCC7)C6)o5)cc34)ccc2o1 [Example 352, 3-(5-BENZOFURANYL)-5-[5- [1-(CYCLOHEXYLMETHYL)- 3(R)-PIPERIDINYL]-1,3,4- OXADIAZOL-2-YL]-1H- INDAZOLE] was run?
**A.** > 1 µM

Reference: patent publication US8999966B2, “Compounds that are ERK inhibitors” (Merck Sharp & Dohme Corp., priority 2010, dated 2015)
